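Method: 48-hour compound exposure of cells in 96-well plates, five concentrations, linear interpolation of endpoints. GI50 marks 50% less growth.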 Activity calls are given as the source filed them. Rule as the data show it: active = GI50 up to about 1.1 µM and inactive = higher.
Columns and labels:
Assay in all cases: NCI tumour cell line growth inhibition, 48 h
NCI-H226 = test system: NCI-H226
BT-549 = test system: BT-549
A549 = test system: A549
SNB-19 = test system: SNB-19
ACHN = test system: ACHN
UO-31 = test system: UO-31
A498 = test system: A498
OVCAR-8 = test system: OVCAR-8
SF-539 = test system: SF-539
UACC-257 = test system: UACC-257
HL-60 = test system: HL-60
NCI-H23 = test system: NCI-H23
HT-29 = test system: HT-29
SR = test system: SR
NCI-H522 = test system: NCI-H522
KM12 = test system: KM12
HCT-116 = test system: HCT-116
EKVX = test system: EKVX
RPMI-8226 = test system: RPMI-8226
SK-MEL-2 = test system: SK-MEL-2
T47D = test system: T47D
NCI/ADR-RES = test system: NCI/ADR-RES
NCI-H460 = test system: NCI-H460
HCT-15 = test system: HCT-15
786-0 = test system: 786-0
LOX IMVI = test system: LOX IMVI
MCF7 = test system: MCF7
Malme-3M = test system: Malme-3M
CCRF-CEM = test system: CCRF-CEM
Hs-578T = test system: Hs-578T
PC-3 = test system: PC-3
OVCAR-3 = test system: OVCAR-3
MDA-MB-231 = test system: MDA-MB-231
MOLT-4 = test system: MOLT-4
OVCAR-5 = test system: OVCAR-5
MDA-MB-435 = test system: MDA-MB-435
SN12C = test system: SN12C
HCC 2998 = test system: HCC 2998
HOP-62 = test system: HOP-62
MDA-N = test system: MDA-N
SF-295 = test system: SF-295
U-251 = test system: U-251
SW-620 = test system: SW-620
K562 = test system: K562
IGROV-1 = test system: IGROV-1
RXF 393 = test system: RXF 393
DU-145 = test system: DU-145
M14 = test system: M14
SNB-75 = test system: SNB-75
CAKI-1 = test system: CAKI-1
OVCAR-4 = test system: OVCAR-4
SF-268 = test system: SF-268
TK-10 = test system: TK-10
UACC-62 = test system: UACC-62
SK-OV-3 = test system: SK-OV-3
SK-MEL-28 = test system: SK-MEL-28
SK-MEL-5 = test system: SK-MEL-5
COLO 205 = test system: COLO 205
HOP-92 = test system: HOP-92

## Nc1ncnc2c1ncn2[C@@H]1C[C@@H]1CO
NCI-H226
  GI50: > 100 µM (inactive)
BT-549
  GI50: > 100 µM (inactive)
A549
  GI50: > 100 µM (inactive)
SNB-19
  GI50: > 100 µM (inactive)
ACHN
  GI50: > 100 µM (inactive)
UO-31
  GI50: > 100 µM (inactive)
A498
  GI50: > 100 µM (inactive)
OVCAR-8
  GI50: > 100 µM (inactive)
SF-539
  GI50: > 100 µM (inactive)
UACC-257
  GI50: > 100 µM (inactive)
HL-60
  GI50: > 100 µM (inactive)
NCI-H23
  GI50: > 100 µM (inactive)
HT-29
  GI50: > 100 µM (inactive)
SR
  GI50: > 100 µM (inactive)
NCI-H522
  GI50: > 100 µM (inactive)
KM12
  GI50: > 100 µM (inactive)
HCT-116
  GI50: > 100 µM (inactive)
EKVX
  GI50: > 100 µM (inactive)
RPMI-8226
  GI50: > 100 µM (inactive)
SK-MEL-2
  GI50: > 100 µM (inactive)
T47D
  GI50: > 100 µM (inactive)
NCI/ADR-RES
  GI50: > 100 µM (inactive)
NCI-H460
  GI50: > 100 µM (inactive)
HCT-15
  GI50: > 100 µM
786-0
  GI50: > 100 µM (inactive)
LOX IMVI
  GI50: > 100 µM (inactive)
MCF7
  GI50: > 100 µM (inactive)
Malme-3M
  GI50: > 100 µM (inactive)
CCRF-CEM
  GI50: > 100 µM (inactive)
Hs-578T
  GI50: > 100 µM (inactive)
PC-3
  GI50: > 100 µM (inactive)
OVCAR-3
  GI50: > 100 µM (inactive)
MDA-MB-231
  GI50: > 100 µM (inactive)
MOLT-4
  GI50: > 100 µM (inactive)
OVCAR-5
  GI50: > 100 µM (inactive)
MDA-MB-435
  GI50: > 100 µM (inactive)
SN12C
  GI50: > 100 µM (inactive)
HCC 2998
  GI50: > 100 µM (inactive)
HOP-62
  GI50: > 100 µM (inactive)
MDA-N
  GI50: > 100 µM (inactive)
SF-295
  GI50: > 100 µM (inactive)
U-251
  GI50: > 100 µM (inactive)
SW-620
  GI50: > 100 µM (inactive)
K562
  GI50: > 100 µM (inactive)

## C/C(O)=C/C(=O)c1[nH]c(C(=O)O)cc1C1CCN(Cc2ccccc2)C1=O (stereo unspecified)
IGROV-1
  GI50: 25.3 µM (inactive)
RXF 393
  GI50: 12 µM (inactive)
BT-549
  GI50: 22.6 µM (inactive)
A549
  GI50: 26.9 µM (inactive)
SNB-19
  GI50: 22.7 µM (inactive)
ACHN
  GI50: 28.6 µM (inactive)
UO-31
  GI50: 14.2 µM (inactive)
A498
  GI50: 41.1 µM (inactive)
OVCAR-8
  GI50: 19.1 µM (inactive)
UACC-257
  GI50: 22.4 µM (inactive)
NCI-H23
  GI50: 17.9 µM (inactive)
HT-29
  GI50: 29.2 µM (inactive)
DU-145
  GI50: 18.3 µM (inactive)
M14
  GI50: 15.3 µM (inactive)
SNB-75
  GI50: 20.8 µM (inactive)
CAKI-1
  GI50: 42.3 µM (inactive)
OVCAR-4
  GI50: 34 µM (inactive)
NCI-H522
  GI50: 23.7 µM (inactive)
KM12
  GI50: 29.9 µM (inactive)
HCT-116
  GI50: 24.3 µM (inactive)
EKVX
  GI50: 21.3 µM (inactive)
RPMI-8226
  GI50: 20.7 µM (inactive)
SF-268
  GI50: 20 µM (inactive)
SK-MEL-2
  GI50: 22.8 µM (inactive)
T47D
  GI50: 15.7 µM (inactive)
TK-10
  GI50: 27.9 µM (inactive)
NCI/ADR-RES
  GI50: 12 µM (inactive)
NCI-H460
  GI50: 15.8 µM (inactive)
HCT-15
  GI50: 11 µM
UACC-62
  GI50: 18.5 µM (inactive)
786-0
  GI50: 21 µM (inactive)
MCF7
  GI50: 22.1 µM (inactive)
Malme-3M
  GI50: 20 µM (inactive)
Hs-578T
  GI50: 32.4 µM (inactive)
PC-3
  GI50: 32.7 µM (inactive)
OVCAR-3
  GI50: 21.7 µM (inactive)
MDA-MB-231
  GI50: 33.2 µM (inactive)
SK-OV-3
  GI50: 22.8 µM (inactive)
SK-MEL-28
  GI50: 23.2 µM (inactive)
MOLT-4
  GI50: 20 µM (inactive)
SK-MEL-5
  GI50: 19.9 µM (inactive)
OVCAR-5
  GI50: 25.2 µM (inactive)
MDA-MB-435
  GI50: 27.3 µM (inactive)
HCC 2998
  GI50: 13.2 µM (inactive)
HOP-62
  GI50: 15.8 µM (inactive)
MDA-N
  GI50: 17.2 µM (inactive)
SF-295
  GI50: 17.9 µM (inactive)
U-251
  GI50: 34.2 µM (inactive)
COLO 205
  GI50: 18 µM (inactive)
HOP-92
  GI50: 20.8 µM (inactive)
SW-620
  GI50: 29.5 µM (inactive)
K562
  GI50: 29.4 µM (inactive)

Reference: ChEMBL document CHEMBL1201862, “PubChem BioAssay data set” (2004)
